In patent publication EP4729516A1, “S[…] DERIVATIVE, INTERMEDIATE, PREPARATION METHOD THEREFOR AND USE THEREOF” (Jiangsu NHWA Pharmaceutical Co., Ltd, priority 2023, dated 2024):
pEC50, pKi: −log10 of the molar value. Read-outs that look alike come from different tables or passages of the source.

Experiments:
[1] = molecular target: T1, α2A adrenoceptor (Homo sapiens, UniProt P08913); test: Agonist screening mode cAMP assay, 293-α2A cells; format: cell-based; details: for agonistic activity on the α2A receptor / agonistic activity α1A/2A: in words, compared with dexmedetomidine hydrochloride; for Function α1A/2A: ratio of α1A to α2A EC50
T1 construct: host or cells: 293
T1 sequence (P08913 1-465): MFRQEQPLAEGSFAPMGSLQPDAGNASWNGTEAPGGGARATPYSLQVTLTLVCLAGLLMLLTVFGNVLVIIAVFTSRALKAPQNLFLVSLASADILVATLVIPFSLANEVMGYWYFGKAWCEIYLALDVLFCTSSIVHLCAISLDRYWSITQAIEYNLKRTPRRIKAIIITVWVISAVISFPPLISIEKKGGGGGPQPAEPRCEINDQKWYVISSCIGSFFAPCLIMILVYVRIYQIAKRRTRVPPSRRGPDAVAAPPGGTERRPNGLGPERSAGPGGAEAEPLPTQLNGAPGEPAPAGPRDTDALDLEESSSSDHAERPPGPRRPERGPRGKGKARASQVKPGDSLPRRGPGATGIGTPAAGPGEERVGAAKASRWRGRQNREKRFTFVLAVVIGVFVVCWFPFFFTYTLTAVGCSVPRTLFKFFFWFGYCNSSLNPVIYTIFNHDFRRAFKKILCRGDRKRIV
Protocol: The cells were centrifuged at 1000 rpm for 5 min, and the supernatant was discarded. 3 mL of PBS was added, and the mixture was gently pipetted to be mixed well. The cells were centrifuged again at 1000 rpm for 5 min, and the supernatant was discarded. The cells were resuspended in the 1× Stimulation buffer and counted using a Countstar cell counter, and the cell density was adjusted to 4 × 10^5 cells/mL for later use. • (4) Cell addition: The cell suspension was added to assay plates at 5 µL/well (i.e., about 2000 cells/well). • (5) Compound addition: The compound diluted with the Stimulation buffer was added to the assay plates described above at 4 µL/well. • (6) Reaction and incubation: After gentle shaking, the assay plates were incubated at 37 °C for 20 min. • (7) Agonist Forskolin addition: A 10× adenylate cyclase agonist (Forskolin with a final concentration of 1 µM) solution was added at 1 µL/well. • (8) Reaction and incubation: After gentle shaking, the assay plates were incubated at 37 °C for 45 min. • (9) Detection reagent addition: cAMP-cryptate and Anti-cAMP-d2 were separately diluted according to a ratio of 1:20 with Lysis & detection buffer in the Cisbio cAMP-Gi detection kit, and the diluted cAMP-cryptate and Anti-cAMP-d2 described above were separately added to the assay plate at 5 µL/well. After shaking, the assay plates were left to stand at room temperature for 60 min. • (10) Experimental readings: The plate was read on Envision, readings from the 665 nm and 615 nm channels were taken, and the ratio of 665 nm/615 nm readings was calculated.

[2] = molecular target: T2, α2A receptor (Homo sapiens, UniProt P08913); test: Competitive receptor binding assay, α2A (3H-RX821002, CHO-K1-α2A membranes); details: for affinity for the α2A receptor / affinity α1A/2A: in words, compared with dexmedetomidine hydrochloride
T2 construct: expressed in transfected cells; host or cells: CHO-K1
T2 sequence (P08913 1-465): T1 sequence (P08913 1-465)
Protocol: Standard buffer (used for preparing α1A, α2A, α2B, and α2C receptor membranes): 146 mg of EDTA was weighed out, a 50 mM Tris-HCl buffer was added to reach a total volume of 1000 mL, and the pH was adjusted to 7.7 to make a final concentration of 0.5 mM for EDTA.
Test sample (compound): The theoretical sample weighing amount was calculated according to the designed concentration and the required volume. Generally, the test sample was dissolved in DMSO to an initial preparation dose of 5.0 × 10^-3 M, and the solution was sequentially diluted with DMSO to 5.0 × 10^-4 M-5.0 × 10^-9 M; the diluted DMSO solution was diluted with Buffer to a working concentration of 5.0 × 10^-5 M-5.0 × 10^-11 M; and the final concentration of DMSO in the working solution was 1% (the final concentration of DMSO in the reaction system was 0.2%). The test sample was prepared and then stored at 4 °C. After the test was completed, the test sample was discarded.
CHO-K1-α1A, CHO-K1-α2A, CHO-K1-α2B, and CHO-K1-α2C cells were taken out of a refrigerator at -80 °C, thawed naturally, and centrifuged at 2000 g at 4 °C for 10 min. The supernatant was discarded, and the pellet was collected. A buffer was added to the pellet, and the mixture was homogenized for 20-30 s and then centrifuged at 48000 g at 4 °C for 25 min. The supernatant was discarded, and the buffer was added again. The mixture was homogenized for 20-30 s and centrifuged at 48000 g at 4 °C for 25 min. The supernatant was discarded, and the pellet was collected and stored at -80 °C.
Table 1. Experimental conditions for radioactive binding
Step 1: 50 µL of a vehicle (1% DMSO) was added to a total binding tube (TB), 50 µL of a non-labeled substance (with a final concentration of 1.0 × 10^-5 M) was added to a non-specific binding tube (NB), and 50 µL of a test compound was added to each test compound tube (CB).
Step 2: 100 µL of a buffer was added to each reaction tube.
Step 3: The prepared membrane was suspended in a buffer to give a membrane suspension with a corresponding concentration for later use.
Step 4: 50 µL of the corresponding radioligand was added to each reaction tube.
Step 5: 50 µL of the membrane suspension was added to each reaction tube.
Step 6: Each reaction tube was incubated according to the incubation conditions. After the reaction was completed, the binding ligands were rapidly filtered under reduced pressure. The UniFilter GF/C plate was saturated with a 0.5% PEI solution 1 h in advance, fully washed with an ice-cold Tris-HCl buffer, filtered under vacuum, then placed into a thermostatic dryer, and dried for 30 min. The filter plate was taken out, and a MICROSCINT PS scintillation solution was added at 40 µL/well.
Step 7: The scintillation vial was put into a liquid scintillation counter for counting.
Based on the effect values of the compound samples at different concentration test points, the GraphPad Prism software was used to fit the action curves of the compound samples to the receptors, and the Ki values were calculated.

[3] = EC50, cAMP-Gi, 293-α2A cells, Forskolin 1 µM, read-out: Function α2A
[4] = Ki, CHO-K1-α2A membranes, 3H-RX821002, read-out: Binding α2A

Structure (SMILES)	pEC50 [1, 3]	agonistic activity on the α2A receptor [1]	Function α1A/2A [1]	pKi [2, 4]	affinity for the α2A receptor [2]	agonistic activity α1A/2A [1]	pEC50 [1]	pKi [2]	affinity α1A/2A [2]
c1cc2c(c(Cc3c[nH]cn3)c1)SCCC2 [Compound 1, 4-[1-(Thiochroman-8-yl)methyl]-1H-imidazole]	8.89	comparable	2.5	7.81	comparable				
CC(c1c[nH]cn1)c1cccc2c1SCCC2 (centres unmarked) [Compound 2, 4-(1-[Thiochroman-8-yl)ethyl]-1H-imidazole]	9.28	superior	10.1	8.11	superior	comparable			
CC(c1c[nH]cn1)c1cccc2c1CC2 (centres unmarked) [Compound 3, 4-(1-(Bicyclo[4.2.0]octa-1(6),2,4-trien-2-yl)ethyl)-1H-imidazole]		comparable	18.3		comparable	superior	8.51	7.54	comparable
CC(c1c[nH]cn1)c1cccc2c1CCCC2 (centres unmarked) [Compound 4, 4-(1-(5,6,7,8-Tetrahydronaphthalen-1-yl)ethyl)-1H-imidazole]		comparable	7.0		comparable	comparable	8.45	7.54	superior
CC(c1c[nH]cn1)c1cccc2c1C=CC2 (centres unmarked) [Compound 8, 4-[1-(1H-Inden-4-yl)ethyl]-1H-imidazole]		superior	23.9		comparable	superior	9.04	7.96	superior
CC(c1c[nH]cn1)c1cccc2c1OCC2 (centres unmarked) [Compound 10, 4-[1-(2,3-Dihydrobenzofuran-7-yl)ethyl]-1H-imidazole]		comparable	5.2		superior	comparable	8.33	8.62	superior
C[C@H](c1c[nH]cn1)c1cc(F)cc2c1C=CC2 [Compound 11-b, 4-[(1S)-1-(6-fluoro-1H-inden-4-yl)ethyl]-1H-imidazole]		comparable	4.0			comparable	8.04	6.68	
CC(c1c[nH]cn1)c1cccc2c1C=CC2(C)C (centres unmarked) [Compound 17, 4-[1-(1,1-Dimethyl-1H-inden-4-yl)ethyl]-1H-imidazole]			3.2			comparable	7.49	6.85	
C[C@H](c1c[nH]cn1)c1cccc2c1CCC2 [Compound 31-b, (S)-4-[1-(2,3-dihydro-1H-inden-4-yl)ethyl]-1H-imidazole]		comparable	1.8			comparable	8.35	7.63	
CC1Cc2cccc(C(C)c3c[nH]cn3)c2O1 (centres unmarked) [Compound 32, 4-[1-(2-Methyl-2,3-dihydrobenzofuran-7-yl)ethyl]-1H-imidazole]			0.0				6.45	8.31	
C[C@H](c1c[nH]cn1)c1cc(F)cc2c1C(=O)CC2 [Compound 38-b, (S)-7-(1-(1H-imidazol-4-yl)ethyl)-5-fluoro-2,3-dihydro-1H-inden-1-one]	7.88		0.7	6.15					
